# Active and inactive are the calls of the source. The calls are words filed in the database; no cut-off is given here.
# Columns and labels:
# [1] = tested on: Plasmacytoid dendritic cell; assay: Inhibition of SLC7A5/SLC3A2 in CpG-A-stimulated human plasmacytoid dendritic cells at 10 uM assessed as decrease in kynurenine transport; format: cell-based
# [2] = target: Tyrosine-protein kinase JAK2 (Homo sapiens) (UniProt O60674); assay: Inhibition of JAK2 in CpG-A and GM-CSF-activated human plasmacytoid dendritic cells at 1 uM assessed as decrease in mTORC1 activity; format: cell-based; conditions: Plasmacytoid dendritic cell
# Chain of Tyrosine-protein kinase JAK2 (Homo sapiens) (O60674 whole entry): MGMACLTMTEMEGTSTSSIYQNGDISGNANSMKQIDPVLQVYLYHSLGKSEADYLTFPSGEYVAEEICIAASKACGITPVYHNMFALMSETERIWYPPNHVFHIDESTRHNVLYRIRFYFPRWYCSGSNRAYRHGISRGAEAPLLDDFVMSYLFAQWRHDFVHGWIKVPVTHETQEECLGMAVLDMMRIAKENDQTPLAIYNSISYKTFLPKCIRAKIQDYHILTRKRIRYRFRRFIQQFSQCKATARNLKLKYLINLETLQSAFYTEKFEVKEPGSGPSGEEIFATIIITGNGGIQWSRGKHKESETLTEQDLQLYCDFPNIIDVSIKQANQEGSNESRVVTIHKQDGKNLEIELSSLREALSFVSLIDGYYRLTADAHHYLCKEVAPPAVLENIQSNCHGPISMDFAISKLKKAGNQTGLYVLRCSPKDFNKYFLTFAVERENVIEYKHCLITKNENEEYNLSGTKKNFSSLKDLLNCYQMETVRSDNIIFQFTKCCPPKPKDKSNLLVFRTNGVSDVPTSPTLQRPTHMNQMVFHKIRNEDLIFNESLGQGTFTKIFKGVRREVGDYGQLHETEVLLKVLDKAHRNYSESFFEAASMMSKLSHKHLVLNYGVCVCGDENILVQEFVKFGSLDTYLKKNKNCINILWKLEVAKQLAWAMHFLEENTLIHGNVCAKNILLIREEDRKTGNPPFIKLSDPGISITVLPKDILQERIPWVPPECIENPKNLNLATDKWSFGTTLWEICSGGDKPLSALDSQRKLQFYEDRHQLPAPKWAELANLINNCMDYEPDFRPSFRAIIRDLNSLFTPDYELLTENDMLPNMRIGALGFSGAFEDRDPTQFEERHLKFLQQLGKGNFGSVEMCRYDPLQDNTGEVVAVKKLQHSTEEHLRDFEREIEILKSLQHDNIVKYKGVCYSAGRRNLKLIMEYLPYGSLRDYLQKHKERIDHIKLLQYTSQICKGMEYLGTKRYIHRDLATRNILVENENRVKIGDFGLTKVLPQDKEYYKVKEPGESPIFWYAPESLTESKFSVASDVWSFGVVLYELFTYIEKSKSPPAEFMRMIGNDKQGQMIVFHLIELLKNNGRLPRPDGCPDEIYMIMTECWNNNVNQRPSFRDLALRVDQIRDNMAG
# [3] = target: Tyrosine-protein kinase JAK2 (Homo sapiens) (UniProt O60674); assay: Inhibition of JAK2 in CpG-A and GM-CSF-activated human plasmacytoid dendritic cells at 1 uM assessed as decrease in TNF production; format: cell-based; conditions: Plasmacytoid dendritic cell
# [4] = target: Tyrosine-protein kinase JAK2 (Homo sapiens) (UniProt O60674); assay: Inhibition of JAK2 in CpG-A and GM-CSF-activated human plasmacytoid dendritic cells at 1 uM assessed as decrease in IFN-alpha production; format: cell-based; conditions: Plasmacytoid dendritic cell
# [5] = target: Tyrosine-protein kinase JAK2 (Homo sapiens) (UniProt O60674); assay: Inhibition of JAK2 in CpG-A and GM-CSF-activated human plasmacytoid dendritic cells at 1 uM assessed as decrease in kynurenine uptake; format: cell-based; conditions: Plasmacytoid dendritic cell
# [6] = target: T1, Signal transducer and activator of transcription 5A (Homo sapiens) (UniProt P42229); assay: Inhibition of STAT5 in IL-3 and CpG-A-stimulated human plasmacytoid dendritic cells at 10 to 50 nM assessed as decrease in IFN-alpha production in presence of 100 uM sulfasalazine; format: cell-based; conditions: Plasmacytoid dendritic cell, dose 10-50 nM
# T1 sequence (whole entry): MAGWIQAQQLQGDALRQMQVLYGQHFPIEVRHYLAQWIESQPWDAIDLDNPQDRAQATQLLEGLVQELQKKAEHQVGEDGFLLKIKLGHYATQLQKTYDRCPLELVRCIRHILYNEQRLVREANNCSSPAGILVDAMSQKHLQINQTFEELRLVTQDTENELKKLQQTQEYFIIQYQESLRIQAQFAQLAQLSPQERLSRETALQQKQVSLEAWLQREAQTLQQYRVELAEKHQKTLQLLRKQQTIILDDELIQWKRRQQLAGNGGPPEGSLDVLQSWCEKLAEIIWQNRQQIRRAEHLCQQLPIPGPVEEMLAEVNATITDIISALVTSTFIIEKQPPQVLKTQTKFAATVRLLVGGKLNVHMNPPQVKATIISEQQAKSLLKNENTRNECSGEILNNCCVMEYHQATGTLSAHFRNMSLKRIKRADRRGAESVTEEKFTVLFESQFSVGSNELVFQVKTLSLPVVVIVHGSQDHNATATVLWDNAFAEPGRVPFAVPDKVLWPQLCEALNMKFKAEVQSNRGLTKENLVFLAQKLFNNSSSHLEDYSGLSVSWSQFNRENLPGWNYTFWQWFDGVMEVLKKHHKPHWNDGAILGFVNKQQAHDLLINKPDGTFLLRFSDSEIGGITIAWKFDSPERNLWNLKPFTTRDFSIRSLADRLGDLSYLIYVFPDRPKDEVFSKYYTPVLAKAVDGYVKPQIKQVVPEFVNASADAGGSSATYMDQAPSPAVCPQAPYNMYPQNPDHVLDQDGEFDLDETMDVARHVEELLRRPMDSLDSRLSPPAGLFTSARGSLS
# [7] = target: T1, Signal transducer and activator of transcription 5A (Homo sapiens); assay: Inhibition of STAT5 in IL-3 and CpG-A-stimulated human plasmacytoid dendritic cells at 10 to 50 nM assessed as decrease in TNF production in presence of 100 uM sulfasalazine; format: cell-based; conditions: Plasmacytoid dendritic cell, dose 10-50 nM
# [8] = target: Large neutral amino acids transporter small subunit 1 (Homo sapiens) (UniProt Q01650); assay: Inhibition of human LAT1 at 100 uM relative to control
# Chain of Large neutral amino acids transporter small subunit 1 (Homo sapiens) (Q01650 whole entry): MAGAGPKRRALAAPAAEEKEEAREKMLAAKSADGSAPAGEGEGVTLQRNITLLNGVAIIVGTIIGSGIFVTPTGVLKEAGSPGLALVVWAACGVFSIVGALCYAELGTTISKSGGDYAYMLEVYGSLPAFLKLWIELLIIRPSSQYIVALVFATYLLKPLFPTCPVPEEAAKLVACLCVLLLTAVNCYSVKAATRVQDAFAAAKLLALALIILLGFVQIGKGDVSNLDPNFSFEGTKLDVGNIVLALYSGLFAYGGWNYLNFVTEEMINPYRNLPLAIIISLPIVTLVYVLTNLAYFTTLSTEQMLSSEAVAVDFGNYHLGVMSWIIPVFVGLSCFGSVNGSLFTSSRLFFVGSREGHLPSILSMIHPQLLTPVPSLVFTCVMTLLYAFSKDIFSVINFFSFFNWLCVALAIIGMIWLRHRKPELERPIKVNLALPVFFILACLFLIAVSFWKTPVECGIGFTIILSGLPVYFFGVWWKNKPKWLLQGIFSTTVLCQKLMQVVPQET
# [9] = target: Glyceraldehyde-3-phosphate dehydrogenase (Homo sapiens) (UniProt P04406); assay: Inhibition of GAPDH in CpG-A-stimulated human plasmacytoid dendritic cells at 10 uM assessed as reduction in IFN-alpha production in presence of 1 uM oligomycin; format: cell-based; conditions: Plasmacytoid dendritic cell
# Chain of Glyceraldehyde-3-phosphate dehydrogenase (Homo sapiens) (P04406 2-335 limits assumed): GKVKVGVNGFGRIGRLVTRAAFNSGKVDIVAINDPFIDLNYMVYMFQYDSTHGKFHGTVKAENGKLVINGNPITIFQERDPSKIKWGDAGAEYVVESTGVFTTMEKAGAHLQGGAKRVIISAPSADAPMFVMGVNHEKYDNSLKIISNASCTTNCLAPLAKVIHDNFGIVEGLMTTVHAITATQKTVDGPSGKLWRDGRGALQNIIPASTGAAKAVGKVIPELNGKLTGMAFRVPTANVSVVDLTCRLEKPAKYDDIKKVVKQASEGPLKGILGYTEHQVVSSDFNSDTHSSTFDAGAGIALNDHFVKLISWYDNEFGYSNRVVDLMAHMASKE
# [10] = target: Glyceraldehyde-3-phosphate dehydrogenase (Homo sapiens) (UniProt P04406); assay: Inhibition of GAPDH in CpG-A-stimulated human plasmacytoid dendritic cells at 10 uM assessed as reduction in TNF production in presence of 1 uM oligomycin; format: cell-based; conditions: Plasmacytoid dendritic cell
# [11] = target: Glyceraldehyde-3-phosphate dehydrogenase (Homo sapiens) (UniProt P04406); assay: Inhibition of GAPDH in CpG-A-stimulated human plasmacytoid dendritic cells at 10 uM assessed as reduction in TNF production; format: cell-based; conditions: Plasmacytoid dendritic cell
# [12] = target: Glyceraldehyde-3-phosphate dehydrogenase (Homo sapiens) (UniProt P04406); assay: Inhibition of GAPDH in CpG-A-stimulated human plasmacytoid dendritic cells at 10 uM assessed as reduction in overall protein synthesis; format: cell-based; conditions: Plasmacytoid dendritic cell
# [13] = target: Glyceraldehyde-3-phosphate dehydrogenase (Homo sapiens) (UniProt P04406); assay: Inhibition of GAPDH in CpG-A-stimulated human plasmacytoid dendritic cells at 10 uM assessed as reduction in IFNa-alpha production; format: cell-based; conditions: Plasmacytoid dendritic cell
# [14] = target: Glyceraldehyde-3-phosphate dehydrogenase (Homo sapiens) (UniProt P04406); assay: Inhibition of GAPDH in CpG-A-stimulated human plasmacytoid dendritic cells at 10 uM assessed as reduction in secreted lactate levels; format: cell-based; conditions: Plasmacytoid dendritic cell
# [15] = target: T2, Cystine/glutamate transporter (Homo sapiens) (UniProt Q9UPY5); assay: Inhibition of XCT in CpG-A-activated human plasmacytoid dendritic cells at 5 uM assessed as decrease in TNF production; format: cell-based; conditions: Plasmacytoid dendritic cell
# T2 sequence (whole entry): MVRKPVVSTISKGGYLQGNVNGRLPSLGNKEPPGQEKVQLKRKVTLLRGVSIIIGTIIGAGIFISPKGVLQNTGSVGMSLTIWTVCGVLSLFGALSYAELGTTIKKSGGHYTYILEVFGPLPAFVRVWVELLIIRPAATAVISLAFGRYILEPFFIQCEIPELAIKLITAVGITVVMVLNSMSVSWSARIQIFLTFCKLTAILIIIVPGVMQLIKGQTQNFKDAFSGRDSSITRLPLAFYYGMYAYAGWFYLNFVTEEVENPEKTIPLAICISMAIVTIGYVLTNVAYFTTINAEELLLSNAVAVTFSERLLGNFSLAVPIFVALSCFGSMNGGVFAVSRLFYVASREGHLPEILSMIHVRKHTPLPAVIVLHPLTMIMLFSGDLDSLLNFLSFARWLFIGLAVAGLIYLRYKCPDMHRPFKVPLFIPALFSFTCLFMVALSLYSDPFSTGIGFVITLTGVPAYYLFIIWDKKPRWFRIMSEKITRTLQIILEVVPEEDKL
# [16] = target: T2, Cystine/glutamate transporter (Homo sapiens); assay: Inhibition of XCT in IL-3 CpG-A-activated human plasma at 10 uM assessed as decrease in pDC activation
# [17] = target: T2, Cystine/glutamate transporter (Homo sapiens); assay: Inhibition of XCT in CpG-A-activated human plasmacytoid dendritic cells at 10 uM assessed as decrease in ENPP2 expression; format: cell-based; conditions: Plasmacytoid dendritic cell
# [18] = target: T2, Cystine/glutamate transporter (Homo sapiens); assay: Inhibition of XCT in CpG-A-activated human plasmacytoid dendritic cells at 5 uM assessed as decrease in IFN-alpha production; format: cell-based; conditions: Plasmacytoid dendritic cell
# [19] = target: T2, Cystine/glutamate transporter (Homo sapiens); assay: Inhibition of XCT in CpG-A-activated human plasmacytoid dendritic cells at 5 uM assessed as decrease in S6 phosphorylation; format: cell-based; conditions: Plasmacytoid dendritic cell
# [20] = target: T2, Cystine/glutamate transporter (Homo sapiens); assay: Inhibition of XCT in CpG-A-activated human plasmacytoid dendritic cells at 1 uM assessed as decrease in TNF production; format: cell-based; conditions: Plasmacytoid dendritic cell
# [21] = target: T2, Cystine/glutamate transporter (Homo sapiens); assay: Inhibition of XCT in CpG-A-activated human plasmacytoid dendritic cells at 5 uM assessed as decrease in kynurenine uptake; format: cell-based; conditions: Plasmacytoid dendritic cell
# [22] = target: T2, Cystine/glutamate transporter (Homo sapiens); assay: Inhibition of XCT in CpG-A-activated human plasmacytoid dendritic cells at 1 uM assessed as decrease in IFN-alpha production; format: cell-based; conditions: Plasmacytoid dendritic cell
# [23] = target: T2, Cystine/glutamate transporter (Homo sapiens); assay: Inhibition of XCT in CpG-A-activated human plasmacytoid dendritic cells at 10 uM assessed as decrease in MYO1E expression; format: cell-based; conditions: Plasmacytoid dendritic cell
# [24] = tested on: Plasmacytoid dendritic cell; assay: Inhibition of F1F0-ATP synthase in CpG-A-stimulated human plasmacytoid dendritic cells at 1 uM assessed as reduction in IFN-alpha production in presence of 10 uM heptelidic acid; format: cell-based
# [25] = tested on: Plasmacytoid dendritic cell; assay: Inhibition of F1F0-ATP synthase in CpG-A-stimulated human plasmacytoid dendritic cells at 1 uM assessed as reduction in TNF production in presence of 10 uM heptelidic acid; format: cell-based
# [26] = tested on: Plasmacytoid dendritic cell; assay: Inhibition of F1F0-ATP synthase in human plasmacytoid dendritic cells at 1 uM assessed as decrease in IFN-alpha production; format: cell-based
# [27] = tested on: Plasmacytoid dendritic cell; assay: Inhibition of F1F0-ATP synthase in human plasmacytoid dendritic cells at 1 uM assessed as decrease in TNF production; format: cell-based
compound,measurement,setting,value
NC1(C(=O)O)CC2CCC1C2 (centres undefined),inhibition,[1],Active
Cc1cc(Nc2nc(N[C@@H](C)c3ncc(F)cn3)ncc2Cl)[nH]n1,inhibition,[2],Active
same,inhibition,[3],Active
same,inhibition,[4],Active
same,inhibition,[5],Active
CN(C)CCNc1nc2ccccc2c2[nH]c3ccccc3c12,inhibition,[6],Active
same,inhibition,[7],Active
FC(F)(F)Oc1ccc(/N=c2\ssnc2Cl)cc1,inhibition,[8],> 90%
N#Cc1c(Br)cccc1/N=c1\ssnc1Cl,inhibition,[8],> 90%
CC(C)[C@H]1CC[C@@]2(CO2)[C@H]2C(=O)OCC(C(=O)O)=C[C@H]12,inhibition,[9],Active
same,inhibition,[10],Active
same,inhibition,[11],Active
same,inhibition,[12],Active
same,inhibition,[13],Active
same,inhibition,[14],Active
CCOc1ccccc1-n1c(C(C)N2CCN(C(=O)COc3ccc(Cl)cc3)CC2)nc2ccccc2c1=O (centres undefined),inhibition,[15],Active
same,inhibition,[16],Active
same,inhibition,[17],Active
same,inhibition,[18],Active
same,inhibition,[19],Active
same,inhibition,[20],Active
same,inhibition,[21],Active
same,inhibition,[22],Active
same,inhibition,[23],Active
N#Cc1ccc(Cl)cc1/N=c1\ssnc1Cl,inhibition,[8],> 90%
CC[C@H]1/C=C/C=C/C[C@@H](C)[C@H](O)[C@@](C)(O)C(=O)[C@@H](C)[C@H](O)[C@@H](C)C(=O)[C@@H](C)[C@H](O)[C@@H](C)/C=C/C(=O)O[C@@H]2[C@H](C)[C@H](CC1)O[C@]1(CC[C@H](C)[C@H](C[C@@H](C)O)O1)[C@H]2C,inhibition,[24],Active
same,inhibition,[25],Active
same,inhibition,[26],Active
same,inhibition,[27],inactive

# Reference: ChEMBL document CHEMBL5393457, “Combined inhibition of amino acid transporters for inhibiting human plasmacytoid dendritic cell activity during autoimmunity” (2022)
